Data taken from PubChem BioAssay (NCI).
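Where inhibition never reached the appropriate level, the endpoint shown equals the highest concentration tested. Otherwise, values were interpolated linearly from a five-concentration, 48-hour dose response in 96-well plates. GI50 is the concentration that inhibits growth by half. TGI is the concentration that stops growth completely.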

Assays:
Experiment in all cases: NCI anticancer screen, dose series, 48 h
KM12 colon = system: KM12 colon
TK-10 renal = system: TK-10 renal
SK-MEL-28 melanoma = system: SK-MEL-28 melanoma
SK-OV-3 ovarian = system: SK-OV-3 ovarian
UACC-257 melanoma = system: UACC-257 melanoma
IGROV1 ovarian = system: IGROV1 ovarian
SF-268 CNS = system: SF-268 CNS
COLO 205 colon = system: COLO 205 colon
NCI-H522 lung = system: NCI-H522 lung
EKVX NSCLC = system: EKVX NSCLC

`NC(C(=O)[O-])C(=O)[O-].NC1CCCCC1N.[Pt+4]` was tested, and the GI50 (KM12 colon) was 12.5 µM, the TGI (KM12 colon) was > 100 µM and the GI50 (TK-10 renal) was 3.1 µM. For the same compound, the TGI (TK-10 renal) was 8.61 µM, the GI50 (SK-MEL-28 melanoma) was 12.7 µM and the TGI (SK-MEL-28 melanoma) was > 100 µM. The GI50 (SK-OV-3 ovarian) was 13.2 µM, the TGI (SK-OV-3 ovarian) was > 100 µM and the GI50 (UACC-257 melanoma) was > 100 µM. The TGI (UACC-257 melanoma) was > 100 µM, the GI50 (IGROV1 ovarian) was 16.3 µM and the TGI (IGROV1 ovarian) was > 100 µM. For the same compound, the GI50 (SF-268 CNS) was 0.188 µM, the TGI (SF-268 CNS) was 6.71 µM and the GI50 (COLO 205 colon) was 2.84 µM. For the same compound, the TGI (COLO 205 colon) was > 100 µM.
`CCN(Cc1ccccc1OC)c1ccc(CO)c(Cl)c1` showed a GI50 (KM12 colon) of 11 µM, a TGI (KM12 colon) of 25.8 µM and a GI50 (TK-10 renal) of 0.0512 µM. For the same compound, the TGI (TK-10 renal) was 0.372 µM, the GI50 (SK-MEL-28 melanoma) was 10.3 µM and the TGI (SK-MEL-28 melanoma) was 24.8 µM. For the same compound, the GI50 (SK-OV-3 ovarian) was 7.15 µM, the TGI (SK-OV-3 ovarian) was 20.9 µM and the GI50 (UACC-257 melanoma) was 0.162 µM. The TGI (UACC-257 melanoma) was 0.498 µM, the GI50 (IGROV1 ovarian) was 0.0502 µM and the TGI (IGROV1 ovarian) was 0.337 µM. The GI50 (SF-268 CNS) was 15.1 µM, the TGI (SF-268 CNS) was 30.7 µM and the GI50 (NCI-H522 lung) was 12 µM. For the same compound, the TGI (NCI-H522 lung) was 26.1 µM, the GI50 (COLO 205 colon) was 4.81 µM and the TGI (COLO 205 colon) was 14.4 µM.
For `NNC(=O)CCC(=O)NC1C2CC3CC(C2)CC1C3` (stereo not drawn), the TGI (KM12 colon) was > 100 µM, the TGI (TK-10 renal) was > 100 µM and the TGI (SK-MEL-28 melanoma) was > 100 µM. The TGI (SK-OV-3 ovarian) was > 100 µM, the TGI (UACC-257 melanoma) was > 100 µM and the TGI (IGROV1 ovarian) was > 100 µM. For the same compound, the TGI (SF-268 CNS) was > 100 µM, the TGI (NCI-H522 lung) was > 100 µM and the TGI (COLO 205 colon) was > 100 µM.
`NC(=O)N1N=C2c3ccccc3SC[C@H]2[C@@H]1c1ccccc1` was tested, and the TGI (EKVX NSCLC) was > 100 µM, the TGI (TK-10 renal) was 92.6 µM and the TGI (SK-MEL-28 melanoma) was 52.1 µM. For the same compound, the TGI (UACC-257 melanoma) was 54 µM, the TGI (IGROV1 ovarian) was 68.4 µM and the TGI (SF-268 CNS) was > 100 µM. It also gave a TGI (COLO 205 colon) of 43.4 µM.
With `COc1ccc(-c2cncn2-c2ccc(OC)cc2)cc1` the GI50 (EKVX NSCLC) was 4.08 µM, the TGI (EKVX NSCLC) was 27.1 µM and the GI50 (KM12 colon) was 10.2 µM. For the same compound, the TGI (KM12 colon) was 29 µM, the GI50 (TK-10 renal) was 17.4 µM and the TGI (TK-10 renal) was 41.9 µM. The GI50 (UACC-257 melanoma) was 21.4 µM, the TGI (UACC-257 melanoma) was 62.2 µM and the GI50 (IGROV1 ovarian) was 18.7 µM. It also gave a TGI (IGROV1 ovarian) of 62.5 µM, a GI50 (SF-268 CNS) of 21.7 µM and a TGI (SF-268 CNS) of 66.2 µM. The GI50 (NCI-H522 lung) was 13.6 µM and the TGI (NCI-H522 lung) was 38.3 µM.
In the case of `CC/C=C\C/C=C\C/C=C\CCCCCCCC(=O)OCC`, the TGI (EKVX NSCLC) is reported as > 100 µM, the TGI (KM12 colon) is reported as > 100 µM and the TGI (TK-10 renal) is reported as > 100 µM. For the same compound, the TGI (SK-MEL-28 melanoma) was > 100 µM, the TGI (SK-OV-3 ovarian) was > 100 µM and the TGI (UACC-257 melanoma) was > 100 µM. The TGI (IGROV1 ovarian) was > 100 µM, the TGI (SF-268 CNS) was > 100 µM and the TGI (COLO 205 colon) was > 100 µM.
With `CC(=O)OC1c2ccccc2CCCCCCC12OCCO2` (stereo not drawn) the TGI (KM12 colon) was > 100 µM, the TGI (TK-10 renal) was > 100 µM and the TGI (SK-MEL-28 melanoma) was > 100 µM. For the same compound, the TGI (SK-OV-3 ovarian) was > 100 µM, the TGI (UACC-257 melanoma) was > 100 µM and the TGI (IGROV1 ovarian) was > 100 µM. For the same compound, the TGI (SF-268 CNS) was > 100 µM, the TGI (NCI-H522 lung) was > 100 µM and the TGI (COLO 205 colon) was > 100 µM.
`CCC12CCCC(=O)N1C(CO)C(c1ccccc1)O2` (stereo not drawn) was tested, and the TGI (EKVX NSCLC) was > 100 µM, the TGI (KM12 colon) was > 100 µM and the TGI (TK-10 renal) was > 100 µM. The TGI (SK-MEL-28 melanoma) was > 100 µM, the TGI (UACC-257 melanoma) was > 100 µM and the TGI (IGROV1 ovarian) was > 100 µM. The TGI (SF-268 CNS) was > 100 µM and the TGI (COLO 205 colon) was > 100 µM.
For `COc1cc(CNc2ccc(C(C)C)cc2)cc(OC)c1OC`, the TGI (EKVX NSCLC) was > 100 µM, the TGI (KM12 colon) was 34.9 µM and the TGI (TK-10 renal) was > 100 µM. It also gave a TGI (SK-MEL-28 melanoma) of 72.7 µM, a TGI (SK-OV-3 ovarian) of 46.2 µM and a TGI (UACC-257 melanoma) of 61.7 µM. The TGI (IGROV1 ovarian) was 70 µM, the TGI (SF-268 CNS) was > 100 µM and the GI50 (NCI-H522 lung) was 11.1 µM. It also gave a TGI (NCI-H522 lung) of 24 µM.
For `CCOC(=O)NN1C(=O)C(=P(c2ccccc2)(c2ccccc2)c2ccccc2)C(C(=O)OCC)=C1C`, the TGI (EKVX NSCLC) was > 100 µM, the TGI (KM12 colon) was > 100 µM and the TGI (TK-10 renal) was > 100 µM. For the same compound, the TGI (SK-OV-3 ovarian) was > 100 µM, the TGI (UACC-257 melanoma) was > 100 µM and the TGI (IGROV1 ovarian) was > 100 µM. The TGI (SF-268 CNS) was > 100 µM, the TGI (NCI-H522 lung) was > 100 µM and the TGI (COLO 205 colon) was > 100 µM.
`CC[C@H](CC#N)OC(=O)N[C@@H](C)c1cccc(NC(=O)Nc2ccc(-c3cnco3)c(OC)c2)c1` gave a GI50 (KM12 colon) of 0.0715 µM, a TGI (KM12 colon) of 18.1 µM and a GI50 (TK-10 renal) of 0.171 µM. It also gave a TGI (TK-10 renal) of 28.3 µM, a GI50 (SK-MEL-28 melanoma) of 0.0505 µM and a TGI (SK-MEL-28 melanoma) of 21.8 µM. For the same compound, the GI50 (SK-OV-3 ovarian) was 0.0722 µM, the TGI (SK-OV-3 ovarian) was > 63.8 µM and the GI50 (UACC-257 melanoma) was 0.0922 µM. For the same compound, the TGI (UACC-257 melanoma) was 23.1 µM, the GI50 (IGROV1 ovarian) was 0.0514 µM and the TGI (IGROV1 ovarian) was 24.2 µM. It also gave a GI50 (SF-268 CNS) of 0.074 µM, a TGI (SF-268 CNS) of 51.3 µM and a GI50 (NCI-H522 lung) of 0.0731 µM. It also gave a TGI (NCI-H522 lung) of 15.1 µM, a GI50 (COLO 205 colon) of 0.0203 µM and a TGI (COLO 205 colon) of 18 µM.
In the case of `COc1cc[nH]c1/C=C1\C(=O)Nc2ccc(F)c(I)c21`, the GI50 (KM12 colon) is reported as 1.25 µM, the TGI (KM12 colon) is reported as > 25 µM and the GI50 (TK-10 renal) is reported as > 25 µM. For the same compound, the TGI (TK-10 renal) was > 25 µM, the GI50 (SK-MEL-28 melanoma) was > 25 µM and the TGI (SK-MEL-28 melanoma) was > 25 µM. The GI50 (SK-OV-3 ovarian) was > 25 µM, the TGI (SK-OV-3 ovarian) was > 25 µM and the GI50 (UACC-257 melanoma) was > 25 µM. For the same compound, the TGI (UACC-257 melanoma) was > 25 µM, the GI50 (IGROV1 ovarian) was > 25 µM and the TGI (IGROV1 ovarian) was > 25 µM. The GI50 (SF-268 CNS) was > 25 µM, the TGI (SF-268 CNS) was > 25 µM and the GI50 (NCI-H522 lung) was > 25 µM. For the same compound, the TGI (NCI-H522 lung) was > 25 µM, the GI50 (COLO 205 colon) was > 25 µM and the TGI (COLO 205 colon) was > 25 µM.
In the case of `C[C@@H]1COCCN1c1cc(C2(S(C)(=N)=O)CC2)nc(-c2ccnc3[nH]ccc23)n1` (stereo partly drawn), the GI50 (KM12 colon) is reported as 5.72 µM, the TGI (KM12 colon) is reported as 63.1 µM and the GI50 (TK-10 renal) is reported as 8.51 µM. The TGI (TK-10 renal) was 51 µM, the GI50 (SK-MEL-28 melanoma) was 5.59 µM and the TGI (SK-MEL-28 melanoma) was 25.8 µM. The GI50 (SK-OV-3 ovarian) was 5.27 µM, the TGI (SK-OV-3 ovarian) was 56.4 µM and the GI50 (UACC-257 melanoma) was 11.7 µM. It also gave a TGI (UACC-257 melanoma) of 52.7 µM, a GI50 (IGROV1 ovarian) of 3.63 µM and a TGI (IGROV1 ovarian) of 63.1 µM. The GI50 (SF-268 CNS) was 6.17 µM, the TGI (SF-268 CNS) was 39.6 µM and the GI50 (NCI-H522 lung) was 6.92 µM. For the same compound, the TGI (NCI-H522 lung) was 43.1 µM, the GI50 (COLO 205 colon) was 11.7 µM and the TGI (COLO 205 colon) was 29 µM.
